From patent US10618901B2 (GlaxoSmithKline Intellectual Property Development Limited, priority 2014, dated 2020) come the findings set out here.

Like-named read-outs stand apart in the source and are kept apart here.

For the test, the target named is T1, LRRK2 Ser935 phosphorylation in SH-SY5Y cells over-expressing recombinant full length LRRK2 (Homo sapiens, UniProt Q5S007).
T1 construct: A BacMam virus expressing full length recombinant LRRK2 was purchased from Invitrogen; host or cells: SH-SY5Y (BacMam transduction)
In words: Recombinant cellular LRRK2 AlphaScreen assay. It counts as cell-based. The text has this:
Recombinant Cellular LRRK2 AlphaScreen Assay
To determine the activity of compounds against LRRK2 kinase activity in cells, the observed LRRK2 kinase-dependent modulation of LRRK2 Ser 935 phosphorylation (Dzamko et al., 2010, Biochem. J. 430: 405-413) was utilized to develop a quantitative 384 well plate-based immunoassay of LRRK2 Ser935 phosphorylation in the human neuroblastoma cell line SH-SY5Y, engineered to over-express recombinant full length LRRK2 protein.
A BacMam virus expressing full length recombinant LRRK2 was purchased from Invitrogen and amplified by inoculation of SF-9 cells at MOI 0.3 for 4-5 days in Sf-900 III SFM medium supplemented with 3% fetal bovine serum. Infected cell cultures were then centrifuged at 2000 g for 20 minutes, viral supernatant titer determined by anti-gp64 plaque assay and stored at 4° C.
Affinity-purified anti-phospho LRRK2 Ser935 sheep polyclonal antibody (Dzamko et al., 2010, Biochem. J. 430: 405-413) was biotinylated by standard methods (PerkinElmer). Anti-LRRK2 rabbit polyclonal antibody was purchased from Novus Biologicals. AlphaScreen Protein A IgG Kit (including acceptor and donor beads) was purchased from Perkin Elmer.
SH-SY5Y cells were grown in DMEM/F12 medium with 10% dialysed fetal bovine serum and harvested by treatment with 0.5% trypsin-EDTA for 5 minutes at 37° C. followed by centrifugation at 1000 rpm for 4 minutes. The cell pellet was resuspended in Opti-MEM reduced serum media (Invitrogen) at 200,000 cells/ml and mixed with the BacMam LRRK2 virus at M01=50. 50 μl cell solutions were then dispensed to each well of a 384-well plate and incubated at 37° C., 5% CO2 for 24 hours.
Serial dilutions of test compounds were prepared in Opti-MEM reduced serum media (Invitrogen) and 5.6 ul transferred from compound plate to cell assay plate to achieve a top final assay concentration of 10 uM. DMSO was used in certain wells as controls. Cells were incubated at 37° C., 5% CO2 for 60 minutes. The medium was then removed and cells lysed by addition of 20 ul cell lysis buffer (Cell Signaling Technology) and incubation at 4° C. for 20 minutes. 10 ul of antibody/acceptor bead mix [(1/1000 biotinylated-pS935 LRRK2 antibody, 1/1000 total-LRRK2 antibody, 1/100 Acceptor beads in AlphaScreen detection buffer (25 mM Hepes (pH 7.4), 0.5% Triton X-100, 1 mg/ml Dextran 500 and 0.1% BSA)] was then added to each well and plates incubated for 2 hours at ambient temperature in the dark. 10 μl of donor beads solution (1/33.3 donor beads in AlphaScreen detection buffer) was then added to each well. Following incubation for a further 2 hours at ambient temperature in the dark, plates were read on an EnVision™ plate reader at emission 520-620 nm with excitation 680 nm. Dose response curve data was based on sigmoidal dose-response model.
(In Alpha technology, singlet oxygen from a donor bead excites a nearby acceptor bead.)

[1] abbreviates: read-out: pIC50 in the recombinant cellular LRRK2 alphaScreen assay (converted).

T1 sequence (Q5S007 whole entry): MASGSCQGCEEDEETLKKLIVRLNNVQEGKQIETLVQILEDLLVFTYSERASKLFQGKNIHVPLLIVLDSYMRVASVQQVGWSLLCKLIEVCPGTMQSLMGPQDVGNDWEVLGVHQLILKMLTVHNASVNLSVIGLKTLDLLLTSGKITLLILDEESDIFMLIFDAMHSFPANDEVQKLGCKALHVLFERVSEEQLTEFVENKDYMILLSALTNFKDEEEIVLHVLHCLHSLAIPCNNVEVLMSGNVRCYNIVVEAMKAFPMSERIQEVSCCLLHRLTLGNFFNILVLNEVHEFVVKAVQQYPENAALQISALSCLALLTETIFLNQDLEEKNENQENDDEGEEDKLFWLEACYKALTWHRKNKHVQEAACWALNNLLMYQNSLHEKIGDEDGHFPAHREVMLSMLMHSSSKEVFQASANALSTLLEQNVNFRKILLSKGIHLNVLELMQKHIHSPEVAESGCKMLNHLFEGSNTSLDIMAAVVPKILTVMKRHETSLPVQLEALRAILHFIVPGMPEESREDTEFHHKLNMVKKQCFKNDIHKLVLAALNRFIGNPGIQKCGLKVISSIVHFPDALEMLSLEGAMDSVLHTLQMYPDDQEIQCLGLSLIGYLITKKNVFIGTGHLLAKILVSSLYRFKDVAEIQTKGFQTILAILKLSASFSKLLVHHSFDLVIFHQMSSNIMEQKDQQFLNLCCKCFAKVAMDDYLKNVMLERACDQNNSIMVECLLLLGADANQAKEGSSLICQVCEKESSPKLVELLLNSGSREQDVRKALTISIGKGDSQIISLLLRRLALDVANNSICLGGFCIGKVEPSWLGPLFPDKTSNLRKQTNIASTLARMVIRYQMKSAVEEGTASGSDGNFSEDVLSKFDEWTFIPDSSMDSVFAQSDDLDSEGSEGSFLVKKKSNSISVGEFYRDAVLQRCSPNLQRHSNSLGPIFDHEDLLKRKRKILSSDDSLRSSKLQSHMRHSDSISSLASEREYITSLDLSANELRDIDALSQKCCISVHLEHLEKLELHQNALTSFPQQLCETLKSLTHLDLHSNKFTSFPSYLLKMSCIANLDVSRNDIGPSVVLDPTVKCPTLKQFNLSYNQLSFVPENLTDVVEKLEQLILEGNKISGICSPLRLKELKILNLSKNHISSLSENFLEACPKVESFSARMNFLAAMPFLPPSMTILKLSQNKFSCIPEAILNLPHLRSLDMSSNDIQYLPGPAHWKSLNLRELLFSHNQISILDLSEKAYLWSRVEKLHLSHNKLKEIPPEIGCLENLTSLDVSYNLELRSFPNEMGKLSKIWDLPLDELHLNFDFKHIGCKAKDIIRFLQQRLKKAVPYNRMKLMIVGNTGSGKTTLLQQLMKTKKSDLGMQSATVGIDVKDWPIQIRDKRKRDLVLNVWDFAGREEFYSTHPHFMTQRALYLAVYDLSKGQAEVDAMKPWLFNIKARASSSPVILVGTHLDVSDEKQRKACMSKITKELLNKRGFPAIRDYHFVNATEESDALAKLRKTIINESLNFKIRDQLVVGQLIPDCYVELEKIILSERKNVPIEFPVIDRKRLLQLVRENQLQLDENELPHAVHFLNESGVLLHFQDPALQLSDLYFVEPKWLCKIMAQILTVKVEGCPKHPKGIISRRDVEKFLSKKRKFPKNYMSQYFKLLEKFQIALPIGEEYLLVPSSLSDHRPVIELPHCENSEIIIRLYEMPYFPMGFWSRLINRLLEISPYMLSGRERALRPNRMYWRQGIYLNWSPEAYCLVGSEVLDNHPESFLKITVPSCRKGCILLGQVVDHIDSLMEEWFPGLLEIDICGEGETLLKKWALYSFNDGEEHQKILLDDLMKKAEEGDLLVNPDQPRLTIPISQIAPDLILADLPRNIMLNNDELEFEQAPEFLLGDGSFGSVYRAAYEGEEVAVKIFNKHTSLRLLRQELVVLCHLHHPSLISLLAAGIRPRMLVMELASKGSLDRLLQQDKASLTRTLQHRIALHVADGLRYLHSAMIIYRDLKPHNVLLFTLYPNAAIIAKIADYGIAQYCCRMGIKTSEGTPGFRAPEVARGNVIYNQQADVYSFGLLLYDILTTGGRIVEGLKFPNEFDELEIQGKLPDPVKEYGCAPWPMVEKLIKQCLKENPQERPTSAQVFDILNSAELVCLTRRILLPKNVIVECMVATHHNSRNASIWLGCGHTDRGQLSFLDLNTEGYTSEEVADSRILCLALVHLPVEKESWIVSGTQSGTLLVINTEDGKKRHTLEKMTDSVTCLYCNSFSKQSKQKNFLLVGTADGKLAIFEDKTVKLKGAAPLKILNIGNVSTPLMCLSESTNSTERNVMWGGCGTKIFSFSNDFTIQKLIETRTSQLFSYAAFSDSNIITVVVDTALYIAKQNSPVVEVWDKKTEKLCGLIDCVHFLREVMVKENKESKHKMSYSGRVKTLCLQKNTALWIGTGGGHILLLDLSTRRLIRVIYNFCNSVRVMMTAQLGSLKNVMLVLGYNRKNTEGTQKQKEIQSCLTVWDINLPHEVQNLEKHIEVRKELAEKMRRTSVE

Take `CCOc1nc(Nc2cnn(C3CCCC3O)c2Cl)nc2[nH]ccc12` (racemic) [Example E36, (±)-2-(5-chloro-4-((4-ethoxy-7H-pyrrolo-[2,3-d]-pyrimidin-2-yl)amino)-1H-pyrazol-1-yl)cyclopentanol]: the IC50 under setting [1] is no more than 0.1 µM.

As for `CCOc1nc(Nc2cnn(C3CCCC3O)c2C)nc2[nH]ccc12` (racemic) [Example E39, (±)-2-(4-((4-ethoxy-7H-pyrrolo[2,3-d]pyrimidin-2-yl)amino)-5-methyl-1H-pyrazol-1-yl)cyclopentanol], under setting [1], the IC50 is no more than 0.1 µM.

`CCOc1nc(Nc2cnn(C3CCC(O)C3)c2Cl)nc2[nH]ccc12` (racemic) [Example E101, (±)-trans-3-(5-chloro-4-((4-ethoxy-7H-pyrrolo[2,3-d]pyrimidin-2-yl)amino)-1H-pyrazol-1-yl) cyclopentanol]: under setting [1], the IC50 was no more than 0.1 µM.

Regarding `CCOc1nc(Nc2cnn(C3CN(C4COC4)CCO3)c2Cl)nc2[nH]ccc12` (racemic) [Example E140, (±)-N-(5-chloro-1-(4-(oxetan-3-yl)morpholin-2-yl)-1H-pyrazol-4-yl)-4-ethoxy-7H-pyrrolo [2,3-d]pyrimidin-2-amine], the IC50 under setting [1] was no more than 0.1 µM.

Consider `CCOc1nc(Nc2cnn(C3CC(N4CCOCC4)CCC3(F)F)c2Cl)nc2[nH]ccc12` (racemic) [Example E145, (±)-trans-N-(5-chloro-1-(2,2-difluoro-5-morpholinocyclohexyl)-1H-pyrazol-4-yl)-4-ethoxy-7H-pyrrolo[2,3-d]pyrimidin-2-amine], for which, under setting [1], the IC50 is no more than 0.1 µM.

Turning to `CCOc1nc(Nc2cnn(C3CCOC3)c2C)nc2[nH]ccc12` (single isomer, unassigned) [Example E16, 4-ethoxy-N-(5-methyl-1-(tetrahydrofuran-3-yl)-1H-pyrazol-4-yl)-7H-pyrrolo-[2,3-d]-pyrimidin-2-amine], the IC50 under setting [1] is no more than 0.1 µM.

Turning to `CCOc1nc(Nc2cnn(C3CCCOC3)c2C)nc2[nH]ccc12` (single isomer, unassigned) [Example E30, 4-ethoxy-N-(5-methyl-1-(tetrahydro-2H-pyran-3-yl)-1H-pyrazol-4-yl)-7H-pyrrolo-[2,3-d]pyrimidin-2-amine], under setting [1], the IC50 was no more than 0.1 µM.

For `CCOc1nc(Nc2cnn([C@@H]3CCO[C@H](C)C3)c2C)nc2[nH]ccc12` (single isomer, unassigned) [Example E42], under setting [1], the IC50 was no more than 0.1 µM.

As to `CCOc1nc(Nc2cnn(C3CN(C)CC3F)c2C)nc2[nH]ccc12` (single isomer, unassigned) [Example E59, 4-ethoxy-N-(1-(4-fluoro-1-methylpyrrolidin-3-yl)-5-methyl-1H-pyrazol-4-yl)-7H-pyrrolo-[2,3-d]pyrimidin-2-amine], the IC50 under setting [1] is no more than 0.1 µM.

For `CCOc1nc(Nc2cnn(C3CCCC3(C)O)c2C)nc2[nH]ccc12` (single isomer, unassigned) [Example E77, trans-2-(4-((4-ethoxy-7H-pyrrolo-[2,3-d]pyrimidin-2-yl)amino)-5-methyl-1H-pyrazol-1-yl)-1-methylcyclopentanol], under setting [1], the IC50 is no more than 0.1 µM.

As for `CCOc1nc(Nc2cnn(CC(C)N3CCOCC3)c2C)nc2[nH]ccc12` (single isomer, unassigned) [Example E92], the IC50 under setting [1] was no more than 0.1 µM.

With `CCOc1nc(Nc2cnn(C3CCN(C4COC4)CC3F)c2C)nc2[nH]ccc12` (single isomer, unassigned) [Example E102, cis-4-ethoxy-N-(1-(3-fluoro-1-(oxetan-3-yl)piperidin-4-yl)-5-methyl-1H-pyrazol-4-yl)-7H-pyrrolo[2,3-d]pyrimidin-2-amine], the IC50 under setting [1] was no more than 0.1 µM.

With `CCOc1nc(Nc2cnn(C3CCN(C4COC4)CC3F)c2Cl)nc2[nH]ccc12` (single isomer, unassigned) [Example E106, cis-N-(5-chloro-1-(3-fluoro-1-(oxetan-3-yl)piperidin-4-yl)-1H-pyrazol-4-yl)-4-ethoxy-7H-pyrrolo[2,3-d]pyrimidin-2-amine], under setting [1], the IC50 is no more than 0.1 µM.

Take `CCOc1nc(Nc2cnn(C3CCC(N4CCOCC4)C3)c2C)nc2[nH]ccc12` (single isomer, unassigned) [Example E108, (trans)-4-ethoxy-N-(5-methyl-1-(3-morpholinocyclopentyl)-1H-pyrazol-4-yl)-7H-pyrrolo[2,3-d]pyrimidin-2-amine]: the IC50 under setting [1] is no more than 0.1 µM.

In the case of `CCOc1nc(Nc2cnn(C3CCC(N4CCOCC4)C3)c2Cl)nc2[nH]ccc12` (single isomer, unassigned) [Example E110, (trans)-N-(5-chloro-1-(3-morpholinocyclopentyl)-1H-pyrazol-4-yl)-4-ethoxy-7H-pyrrolo [2,3-d]pyrimidin-2-amine], the IC50 under setting [1] was no more than 0.1 µM.

Take `CCOc1nc(Nc2cnn(C3CNCCC3(F)F)c2C)nc2[nH]ccc12` (single isomer, unassigned) [Example E117, N-(1-(4,4-difluoropiperidin-3-yl)-5-methyl-1H-pyrazol-4-yl)-4-ethoxy-7H-pyrrolo[2,3-d]pyrimidin-2-amine]: the IC50 reads like this: (LRRK2 Ser935 phosphorylation, 60 minutes, read-out: recombinant cellcular LRRK2 alphaScreen assay (pIC50) (converted)) 0.00251 µM; under setting [1], no more than 0.1 µM.

Regarding `CCOc1nc(Nc2cnn(C3CN(C4COC4)CCC3(F)F)c2C)nc2[nH]ccc12` (single isomer, unassigned) [Example E119, N-(1-(4,4-difluoro-1-(oxetan-3-yl)piperidin-3-yl)-5-methyl-1H-pyrazol-4-yl)-4-ethoxy-7H-pyrrolo[2,3-d]pyrimidin-2-amine], the IC50 under setting [1] is no more than 0.1 µM.

Take `CCOc1nc(Nc2cnn(C3CN(C4COC4)CCC3(F)F)c2Cl)nc2[nH]ccc12` (single isomer, unassigned) [Example E123, N-(5-chloro-1-(4,4-difluoro-1-(oxetan-3-yl)piperidin-3-yl)-1H-pyrazol-4-yl)-4-ethoxy-7H-pyrrolo[2,3-d]pyrimidin-2-amine]: the IC50 under setting [1] is no more than 0.1 µM.

Turning to `CCOc1nc(Nc2cnn(C3CNCCC3(F)F)c2Cl)nc2[nH]ccc12` (single isomer, unassigned) [Example E125, N-(5-chloro-1-(4,4-difluoropiperidin-3-yl)-1H-pyrazol-4-yl)-4-ethoxy-7H-pyrrolo [2,3-d] pyrimidin-2-amine], under setting [1], the IC50 is no more than 0.1 µM.

For the compound `CCOc1nc(Nc2cnn(C3CCOCC3F)c2C)nc2[nH]ccc12` (single isomer, unassigned) [Example E128, (cis)-4-ethoxy-N-(1-(3-fluorotetrahydro-2H-pyran-4-yl)-5-methyl-1H-pyrazol-4-yl)-7H-pyrrolo[2,3-d]pyrimidin-2-amine], under setting [1], the IC50 is no more than 0.1 µM.

`CCOc1nc(Nc2cnn(C3CCN(C4COC4)CC3F)c2CC)nc2[nH]ccc12` (single isomer, unassigned) [Example E130, (trans)-4-ethoxy-N-(5-ethyl-1-(3-fluoro-1-(oxetan-3-yl)piperidin-4-yl)-1H-pyrazol-4-yl)-7H-pyrrolo[2,3-d]pyrimidin-2-amine]: under setting [1], the IC50 is no more than 0.1 µM.

For `CCOc1nc(Nc2cnn(C3CCN(C4COC4)CC3(F)F)c2C)nc2[nH]ccc12` (single isomer, unassigned) [Example E131, N-(1-(3,3-difluoro-1-(oxetan-3-yl)piperidin-4-yl)-5-methyl-1H-pyrazol-4-yl)-4-ethoxy-7H-pyrrolo[2,3-d]pyrimidin-2-amine], under setting [1], the IC50 was no more than 0.1 µM.

Take `CCOc1nc(Nc2cnn(C3CCN(C4COC4)CC3(F)F)c2Cl)nc2[nH]ccc12` (single isomer, unassigned) [Example E133, N-(5-chloro-1-(3,3-difluoro-1-(oxetan-3-yl)piperidin-4-yl)-1H-pyrazol-4-yl)-4-ethoxy-7H-pyrrolo[2,3-d]pyrimidin-2-amine]: the IC50 under setting [1] was no more than 0.1 µM.

Consider `CCOc1nc(Nc2cnn(C3CCN(C4COC4)CC3(C)F)c2C)nc2[nH]ccc12` (single isomer, unassigned) [Example E138, (4-ethoxy-7H-pyrrolo[2,3-d]pyrimidin-2-yl)-[1-(3-fluoro-3-methyl-1-oxetan-3-yl-piperidin-4-yl)-5-methyl-1H-pyrazol-4-yl]-amine], for which, under setting [1], the IC50 is no more than 0.1 µM.
